We go through one molecule from PMC12670164, “In vitro and clinical data demonstrate negligible risk of drug–drug interactions with opelconazole, a novel inhaled antifungal agent” (Journal of Antimicrobial Chemotherapy, 2025).

Usually Cmax stands for the maximum level reached in the sampled fluid or tissue.

In data set [1] the target is T1, OAT3 (Homo sapiens, UniProt Q8TCC7).
T1 construct: expressed in transfected cells
T1 sequence (Q8TCC7 1-542): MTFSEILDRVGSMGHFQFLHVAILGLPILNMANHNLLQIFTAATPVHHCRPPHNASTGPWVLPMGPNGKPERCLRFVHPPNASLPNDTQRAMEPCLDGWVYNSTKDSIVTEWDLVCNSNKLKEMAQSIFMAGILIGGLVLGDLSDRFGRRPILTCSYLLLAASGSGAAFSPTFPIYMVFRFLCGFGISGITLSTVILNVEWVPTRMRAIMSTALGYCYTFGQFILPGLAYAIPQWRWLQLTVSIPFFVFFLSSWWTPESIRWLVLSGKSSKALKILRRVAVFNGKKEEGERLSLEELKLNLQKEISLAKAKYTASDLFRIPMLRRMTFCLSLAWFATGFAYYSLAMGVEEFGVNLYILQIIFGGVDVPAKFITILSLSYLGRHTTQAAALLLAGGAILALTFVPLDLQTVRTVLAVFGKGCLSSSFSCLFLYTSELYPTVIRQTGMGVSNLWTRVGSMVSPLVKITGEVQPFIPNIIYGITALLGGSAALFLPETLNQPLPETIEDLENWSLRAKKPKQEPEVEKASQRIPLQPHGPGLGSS
Briefly: Transporter inhibition. Format: in vitro ADME. To be noted: 0.5 and 5 μM tested. The procedure: (§1) Human transporter protein interactions with opelconazole as a potential substrate and/or inhibitor were assessed for the following key carrier transporters: organic anion transporters, OAT1 and OAT3; organic cation transporters, OCT1 and OCT2; OATP1B1 and OATP1B3; multidrug and toxin extrusion, MATE-1 and MATE2-K; key ATP-binding cassette (ABC) transporters including P-gp, breast cancer resistance protein (BCRP) and bile salt export pump (BSEP). Two concentrations of opelconazole, 0.5 and 5 μM, were tested using MDCKII cells, human embryonic kidney 293 cells and BSEP-transfected sf9 membrane vesicles and then analysed by LC-tandem MS to determine transporter inhibition and whether opelconazole was a transporter substrate. The viability of experimental test systems was confirmed with controls and known probe substrates and probe inhibitors.

In data set [2] the target is T2, OATP1B1 (Homo sapiens, UniProt Q9Y6L6).
T2 construct: expressed in transfected cells
T2 sequence (Q9Y6L6 1-691): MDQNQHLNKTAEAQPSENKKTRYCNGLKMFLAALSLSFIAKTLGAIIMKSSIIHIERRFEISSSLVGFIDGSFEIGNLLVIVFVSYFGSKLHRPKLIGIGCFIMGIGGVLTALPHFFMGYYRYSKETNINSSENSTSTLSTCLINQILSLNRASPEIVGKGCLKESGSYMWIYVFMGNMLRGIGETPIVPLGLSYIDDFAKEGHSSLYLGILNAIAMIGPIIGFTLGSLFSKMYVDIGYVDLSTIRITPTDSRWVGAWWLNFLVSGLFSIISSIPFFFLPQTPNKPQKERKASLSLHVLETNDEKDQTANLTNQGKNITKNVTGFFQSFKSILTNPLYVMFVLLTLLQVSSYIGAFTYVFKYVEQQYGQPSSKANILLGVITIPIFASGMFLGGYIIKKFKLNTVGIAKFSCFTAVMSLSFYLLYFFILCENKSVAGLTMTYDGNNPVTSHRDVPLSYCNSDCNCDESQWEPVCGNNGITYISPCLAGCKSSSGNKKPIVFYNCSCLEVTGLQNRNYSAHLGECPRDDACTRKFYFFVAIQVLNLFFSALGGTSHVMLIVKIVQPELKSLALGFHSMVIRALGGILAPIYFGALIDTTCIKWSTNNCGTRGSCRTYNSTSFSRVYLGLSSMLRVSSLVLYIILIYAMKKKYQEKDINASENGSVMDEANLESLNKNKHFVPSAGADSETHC
Briefly: Transporter inhibition. Format: in vitro ADME. To be noted: 0.5 and 5 μM tested. The procedure:
as §1

On the set-up of data set [3]: method as in PMID 33340279. The settings on record: available PK data, cited from earlier work.
The test system of data set [4] is CYP2B6. Briefly: CYP induction, mRNA endpoint, cryopreserved human hepatocytes. The class given is in vitro ADME. To be noted: any of the three donors. The procedure:
The hepatocyte cells were dosed with opelconazole (0.012, 0.03, 0.12, 0.3, 1.2 and 3 μM) and positive control compounds (omeprazole for CYP1A2 and rifampicin for CYP3A4).

Data set [5] relates to CYP isoforms. The data set is described as follows: Initial CYP inhibition study in human liver microsomes. The class given is in vitro ADME. The settings on record: opelconazole 0.03 to 5 μM. In general terms: Microsomes from liver hold many membrane-bound enzymes, among them those of drug oxidation.
Description: The potential for opelconazole to inhibit CYP isoforms was tested in vitro in human liver microsomes. […] Preincubation of the human liver microsomes for periods of 0 min without NADPH and 30 min with NADPH, plus 30 min without NADPH were included to assess for a time-dependent inhibition effect. Two structurally diverse substrates (testosterone and midazolam) were tested to assess substrate-dependent inhibition.

As to `Cc1cc(N2CCN(c3ccc(C(=O)Nc4ccc(F)cc4)cc3)CC2)ccc1OC[C@@H]1CO[C@@](Cn2cncn2)(c2ccc(F)cc2F)C1` [opelconazole], the “inhibitory interaction with OAT3” value in data set [1] is given as “negligible inhibitory interactions”. Moreover, in data set [2], the “inhibitory interaction with OATP1B1” value is on record as “negligible inhibitory interactions”. Further, the “Cmax (low systemic exposure)” value in data set [3] is listed as 1 ng/mL. Besides, the Cmax in data set [3] (read-out: Cmax (low systemic exposure)) was 1.6 nM. Moreover, the “CYP2B6 mRNA expression” value in data set [4] is on record as “did not increase mRNA expression”. Also, in data set [5], the “CYP inhibition, initial study” value was “limited to CYP3A4”.
